The values below come from patent US8969570B2, “Beta-lactamase inhibitors” (priority 2012, dated 2015).

Counter-ions that a name gives are not always drawn.

Common to all, as to assay type: cell-based
Common to all, as to conditions: β-lactam (CXA-101/Ceftolozane or ceftazidime) fixed at 4 μg/mL; compared with Avibactam (comparator compound CCC)

Assay [1] deals with bacterial strains that express SHV-12 β-lactamase (isogenic E. coli strain). The experiment in a line: Synergy MIC (sMIC) assay, SHV-12 strain. From the text: (§1) A set of β-lactamase expressing isogenic E. coli strains was constructed by cloning a β-lactamase gene into a customized derivative of pBR322 (GenBank Accession Number J01749) and transforming the engineered plasmids into E. coli. The NdeI restriction site within the plasmid backbone of pBR322 was removed to generate pBR322 ΔNdeI. The pBR322 ΔNdeI vector itself, minus the blaTEM-1 gene, was amplified using two primers: (1) pBR-Pbla 5′-[…]-3, SEQ ID 1, a primer with an engineered NdeI restriction site at the 3′ end of the blaTEM-1 promoter and (2) pBR-vec-1 5′-[…]-3′, SEQ ID 2, a primer with an engineered BamHI restriction site at the 3′ end of the blaTEM-1 open reading frame. The chloramphenicol resistance gene, cat, was generated by PCR amplification from pKD3 (GenBank Accession Number AY048742) using primers with an engineered NdeI restriction site at the 5′ end (Pbla-cat 5′-[…]-3′, SEQ ID 3) and an engineered BamHI restriction site at the 3′ end (Vec-1-cat 5′-[…]-3′, SEQ ID 4) of the resistance gene. The two PCR products, pBR322 ΔNdeI and cat were ligated together generating pBR-CBST (pBR322 ΔNdeI ΔTEM-1::cat Seq. ID 5) which retains both the pBR322 tetracycline resistance cassette, tetA, and the plasmid origin of replication but the blaTEM-1 gene was replaced by the cat gene.
(§2) Using this engineering strategy a number of plasmids producing β-lactamase genes from different classes (see below) were generated using synthetic genes with an engineered NdeI restriction site at the 5′ end and BamHI restriction site at the 3′ end of each gene (GenScript). Both the synthetic β-lactamase genes and cat gene were ligated into the NdeI/BamHI sites of the pBR322 ΔNdeI PCR product and transformed into electrocompetent E. coli ElectroMax DH10B (Invitrogen/Life Technologies). E. coli DH10B harboring the recombinant plasmids were selected on LB agar (supplemented with 25 μg/mL tetracycline) and single isolated colonies were then inoculated into 5 mL LB media (supplemented with 25 μg/mL tetracycline), and incubated at 37° C. with aeration (250 rpm) for 18 hrs. The cultures were frozen back at −80° C. in 20% glycerol. The DNA sequence of the cloned β-lactamase genes was confirmed. The β-lactamase gene expression in the recombinant E. coli strains was driven by the blaTEM-1 promoter in the pBR-CBST plasmid and was characterized by MIC profiling of the E. coli recombinant strains against comparator β-lactam/BLI combinations in broth microdilution assay.
(§3) The synergy MIC (sMIC) assay determines the concentration of the BLI required to potentiate the activity of a fixed concentration of a β-lactam antibiotic against β-lactamase producing bacterial strains. The experimental protocol was performed according to Clinical and Laboratory Standards Institute (CLSI) guidelines with modifications as described below (CLSI guidelines can be derived from the CLSI document M07-A9 published in January 2012: “Methods for Dilution Antimicrobial Susceptibility Tests for Bacteria That Grow Aerobically; Approved Standard-Ninth Edition”). The assay is set-up by serially diluting the BLI across 11 of the 12 wells in each row of a 96-well broth microdilution assay plate, adding the β-lactam at a fixed concentration to all wells in the assay plate, inoculating the assay plate with bacterial strains, and determining the lowest concentration of BLI required to inhibit overnight bacterial growth.
(§4) To prepare for MIC testing, frozen glycerol stocks of laboratory engineered, isogenic E. coli strains, which contain cloned β-lactamase expressing plasmids were used to streak for isolated colonies on rich, selective LB agar supplemented with 25 μg/mL tetracycline to maintain the plasmid. All strains were incubated at 37° C. for 18-24 hrs.
(§5) On the day of testing, primary cultures were started by scraping off 5-10 colonies from the tetracycline supplemented LB plates containing engineered strains. […]

Assay [2] deals with bacterial strains that express KPC β-lactamase (isogenic E. coli strain KPC-2). Briefly: Synergy MIC (sMIC) assay, KPC strain.
Excerpt: as §1, §2, §3, §4, §5

Assay [3] relates to bacterial strains that express OXA-15 β-lactamase (isogenic E. coli strain). Briefly: Synergy MIC (sMIC) assay, OXA-15 strain.
Excerpt: as §1, §2, §3, §4, §5

The subject of assay [4] is bacterial strains that express P99 β-lactamase (isogenic E. coli strain P99 AmpC). The experiment in a line: Synergy MIC (sMIC) assay, P99 AmpC strain.
Excerpt: as §1, §2, §3, §4, §5

Assay [5] deals with bacterial strains that express CTX-M-15 β-lactamase (isogenic E. coli strain). Briefly: Synergy MIC (sMIC) assay, CTX-M-15 strain.
Excerpt: as §1, with “cat gene. […]” for “cat gene.”

In the case of `NCc1nnc([C@@H]2CC[C@@H]3CN2C(=O)N3OS(=O)(=O)O)s1` [Compound 301, (2S,5R)-2-(5-(aminomethyl)-1,3,4-thiadiazol-2-yl)-7-oxo-1,6-diazabicyclo[3.2.1]octan-6-yl hydrogen sulfate], the “activity against bacterial strains that express SHV-12 β-lactamase relative to Avibactam (sMIC)” value in assay [1] is “as active as Avibactam”. Moreover, the “activity against bacterial strains that express KPC β-lactamase relative to Avibactam (sMIC)” value in assay [2] is on record as “as active or more active than Avibactam”. Further, in assay [3], the “activity against bacterial strains that express OXA-15 β-lactamase relative to Avibactam (sMIC)” value was “more active than Avibactam”. Besides, the “activity against bacterial strains that express P99 β-lactamase relative to Avibactam (sMIC)” value in assay [4] is “as active as Avibactam”.

On to `NC(=O)c1cc([C@@H]2CC[C@@H]3CN2C(=O)N3OS(=O)(=O)O)no1` [Compound 103, (2S,5R)-2-(5-carbamoylisoxazol-3-yl)-7-oxo-1,6-diazabicyclo[3.2.1]octan-6-yl hydrogen sulfate], for which, in assay [1], the “activity against bacterial strains that express SHV-12 β-lactamase relative to Avibactam (sMIC)” value was “as active as Avibactam”. Further, the “activity against bacterial strains that express KPC β-lactamase relative to Avibactam (sMIC)” value in assay [2] was “as active or more active than Avibactam”.

As for `NC(=O)c1noc([C@@H]2CC[C@@H]3CN2C(=O)N3OS(=O)(=O)O)n1` [Compound 401, (2S,5R)-2-(3-carbamoyl-1,2,4-oxadiazol-5-yl)-7-oxo-1,6-diazabicyclo[3.2.1]octan-6-yl hydrogen sulfate], the “activity against bacterial strains that express SHV-12 β-lactamase relative to Avibactam (sMIC)” value in assay [1] was “as active as Avibactam”. The “activity against bacterial strains that express KPC β-lactamase relative to Avibactam (sMIC)” value in assay [2] is “as active or more active than Avibactam”.

Take `CNc1nnc([C@@H]2CC[C@@H]3CN2C(=O)N3OS(=O)(=O)O)o1` [Compound 203, (2S,5R)-2-(5-(methylamino)-1,3,4-oxadiazol-2-yl)-7-oxo-1,6-diazabicyclo[3.2.1]octan-6-yl hydrogen sulfate]: the “activity against bacterial strains that express KPC β-lactamase relative to Avibactam (sMIC)” value in assay [2] is on record as “as active or more active than Avibactam”.

For `CCc1nnc([C@@H]2CC[C@@H]3CN2C(=O)N3OS(=O)(=O)O)o1` [Compound 201, (2S,5R)-2-(5-ethyl-1,3,4-oxadiazol-2-yl)-7-oxo-1,6-diazabicyclo[3.2.1]octan-6-yl hydrogen sulfate], the “activity against bacterial strains that express KPC β-lactamase relative to Avibactam (sMIC)” value in assay [2] was “as active or more active than Avibactam”. The “activity against bacterial strains that express OXA-15 β-lactamase relative to Avibactam (sMIC)” value in assay [3] is “more active than Avibactam”.

Turning to `CN1CCN(c2nnc([C@@H]3CC[C@@H]4CN3C(=O)N4OS(=O)(=O)O)o2)CC1` [Compound 205, (2S,5R)-2-(5-(4-methylpiperazin-1-yl)-1,3,4-oxadiazol-2-yl)-7-oxo-1,6-diazabicyclo[3.2.1]octan-6-yl hydrogen sulfate], in assay [2], the “activity against bacterial strains that express KPC β-lactamase relative to Avibactam (sMIC)” value is reported as “as active or more active than Avibactam”. Also, the “activity against bacterial strains that express OXA-15 β-lactamase relative to Avibactam (sMIC)” value in assay [3] is reported as “more active than Avibactam”.

Consider `O=C1N2C[C@@H](CC[C@H]2c2nnc(N3CCNCC3)s2)N1OS(=O)(=O)O` [Compound 302, (2S,5R)-7-oxo-2-(5-(piperazin-1-yl)-1,3,4-thiadiazol-2-yl)-1,6-diazabicyclo[3.2.1]octan-6-yl hydrogen sulfate], for which the “activity against bacterial strains that express SHV-12 β-lactamase relative to Avibactam (sMIC)” value in assay [1] is recorded as “as active as Avibactam”. Moreover, the “activity against bacterial strains that express KPC β-lactamase relative to Avibactam (sMIC)” value in assay [2] was “as active or more active than Avibactam”. The “activity against bacterial strains that express OXA-15 β-lactamase relative to Avibactam (sMIC)” value in assay [3] is on record as “more active than Avibactam”.

For the compound `O=C1N2C[C@@H](CC[C@H]2c2nnc(C3CNCCO3)o2)N1OS(=O)(=O)O` (stereo partly drawn) [Compound 206, (2S,5R)-2-(5-(morpholin-2-yl)-1,3,4-oxadiazol-2-yl)-7-oxo-1,6-diazabicyclo[3.2.1]octan-6-yl hydrogen sulfate], the “activity against bacterial strains that express KPC β-lactamase relative to Avibactam (sMIC)” value in assay [2] was “as active or more active than Avibactam”. In addition, in assay [3], the “activity against bacterial strains that express OXA-15 β-lactamase relative to Avibactam (sMIC)” value is reported as “more active than Avibactam”. In addition, in assay [4], the “activity against bacterial strains that express P99 β-lactamase relative to Avibactam (sMIC)” value is reported as “as active as Avibactam”.

Regarding `O=C1N2C[C@@H](CC[C@H]2c2ccon2)N1OS(=O)(=O)O` [Compound 101, (2S,5R)-2-(isoxazol-3-yl)-7-oxo-1,6-diazabicyclo[3.2.1]octan-6-yl hydrogen sulfate], the “activity against bacterial strains that express CTX-M-15 β-lactamase relative to Avibactam (sMIC)” value in assay [5] is “as active as Avibactam”. Besides, in assay [2], the “activity against bacterial strains that express KPC β-lactamase relative to Avibactam (sMIC)” value is on record as “as active or more active than Avibactam”. In addition, the “activity against bacterial strains that express P99 β-lactamase relative to Avibactam (sMIC)” value in assay [4] was “as active as Avibactam”.

For the compound `O=C1N2C[C@@H](CC[C@H]2c2ncns2)N1OS(=O)(=O)O` [Compound 500, (2S,5R)-7-oxo-2-(1,2,4-thiadiazol-5-yl)-1,6-diazabicyclo[3.2.1]octan-6-yl hydrogen sulfate], the “activity against bacterial strains that express P99 β-lactamase relative to Avibactam (sMIC)” value in assay [4] is reported as “as active as Avibactam”.

Consider `CN1CCC(c2nnc([C@@H]3CC[C@@H]4CN3C(=O)N4OS(=O)(=O)O)o2)CC1` [Compound 204, (2S,5R)-2-(5-(1-methylpiperidin-4-yl)-1,3,4-oxadiazol-2-yl)-7-oxo-1,6-diazabicyclo[3.2.1]octan-6-yl hydrogen sulfate], for which, in assay [2], the “activity against bacterial strains that express KPC β-lactamase relative to Avibactam (sMIC)” value is listed as “as active or more active than Avibactam”. Moreover, the “activity against bacterial strains that express OXA-15 β-lactamase relative to Avibactam (sMIC)” value in assay [3] is on record as “more active than Avibactam”. For the same compound, the “activity against bacterial strains that express P99 β-lactamase relative to Avibactam (sMIC)” value in assay [4] is “as active as Avibactam”.

Turning to `CCOC(=O)c1noc([C@@H]2CC[C@@H]3CN2C(=O)N3OS(=O)(=O)O)n1` [Compound 402, ethyl 5-((2S,5R)-7-oxo-6-(sulfooxy)-1,6-diazabicyclo[3.2.1]octan-2-yl)-1,2,4-oxadiazole-3-carboxylate], the “activity against bacterial strains that express SHV-12 β-lactamase relative to Avibactam (sMIC)” value in assay [1] was “as active as Avibactam”.

`N#Cc1cc([C@@H]2CC[C@@H]3CN2C(=O)N3OS(=O)(=O)O)no1` [Compound 102, (2S,5R)-2-(5-cyanoisoxazol-3-yl)-7-oxo-1,6-diazabicyclo[3.2.1]octan-6-yl hydrogen sulfate]: the “activity against bacterial strains that express KPC β-lactamase relative to Avibactam (sMIC)” value in assay [2] is reported as “as active or more active than Avibactam”.

Take `Cc1nnc([C@@H]2CC[C@@H]3CN2C(=O)N3OS(=O)(=O)O)o1` [Compound 200, (2S,5R)-2-(5-methyl-1,3,4-oxadiazol-2-yl)-7-oxo-1,6-diazabicyclo[3.2.1]octan-6-yl hydrogen sulfate]: the “activity against bacterial strains that express SHV-12 β-lactamase relative to Avibactam (sMIC)” value in assay [1] is “as active as Avibactam”. Further, the “activity against bacterial strains that express KPC β-lactamase relative to Avibactam (sMIC)” value in assay [2] is “as active or more active than Avibactam”. The “activity against bacterial strains that express OXA-15 β-lactamase relative to Avibactam (sMIC)” value in assay [3] is on record as “more active than Avibactam”.
